Data set [1] is described as follows: Maternal plasma drug concentrations by HPLC tandem mass spectrometry at 36-weeks' gestation. Particulars: for Δ T3-T0, change in dose-adjusted plasma concentration: mean ± SE, from baseline (T0) to post-dose 3 (T3); for Pharmacokinetic phase at the post-dose fetal assessment: reached Cmax. From the text: To investigate chronic and acute SRI effects on the fetus, SRI-treated women were asked to withhold their typical morning oral dose until ~10h00, resulting in the AM/baseline and PM fetal assessments corresponding to pre-dose and post-dose periods, respectively. To characterize concurrent SRI pharmacokinetics across the study protocol, plasma drug concentrations were quantified at baseline (pre-dose) and four time-points post-dose; details on the drug level assay and pharmacologic variables are described below. Timing for each component of this study considered the need for a sufficient antidepressant baseline (pharmacologic trough), half-life, and time-to-peak plasma levels, weighted against length of study in effort to minimize maternal discomfort/inconvenience and potential effects of diurnal variations in the fetal variables obtained.
Changes in maternal plasma drug concentration between fetal assessments were determined by analyzing blood samples from SRI-treated mothers pre-dose (T0, baseline levels; ~08h00) and at four time-points post-dose: T1 (~10h30), T2 (~12h30), T3 (~13h30), and T4 (~14h30). Serum was separated by centrifugation at 3,000 × g for 10 min, transferred to polypropylene tubes and stored at −70°C until analysis. High performance liquid chromatography tandem mass spectrometry, performed offsite (CANTEST Ltd.; Burnaby, Canada), was used to determine levels of fluoxetine, norfluoxetine, paroxetine, sertraline, citalopram, escitalopram and venlafaxine.
Plasma drug concentrations were adjusted for maternal oral dose (ng/ml·mg). To quantify the relative change in maternal SRI level between the pre- and post-dose fetal assessments, the difference in dose-adjusted plasma drug concentration between T0 and T3 was determined. Plasma concentrations for metabolites were not reported as they reflect parent drugs.

Data set [2] in a line: Non-compartmental pharmacokinetic analysis of maternal SRI plasma levels. It counts as in vivo, human. Particulars: for AUC(0-t) / Cmax: female, human, 36-weeks' gestation, daily oral dose; for AUC(0-t) / Cmax / Tpeak: mean ± SE; for AUC(0-t): area under the curve from T0 (baseline) to last measured plasma concentration (T4), SRI-treated women; for Cmax: maximum (peak) maternal plasma drug concentration; for Tpeak: time from baseline (T0) to reach Cmax, oral dose about 1.8 h after T0. As to the method:
Maternal SRI plasma levels were further characterized by performing a non-compartmental pharmacokinetic analysis, yielding estimates of maximum plasma drug concentration (Cmax), time-to-peak (Tpeak) and area under the curve (AUClast). Pharmacokinetic variables were calculated using the PKNCA R package ([73]).

On the set-up of data set [3]: method as in PMID 26765210. To be noted: rodents; 2-h after maternal drug administration; ref [83]; cited from earlier work.
The conditions of data set [4]: known value the observation is said to be consistent with; no reference given; cited from earlier work.
The next data set relates to fetal HR. To be noted: acute exposure; ref [49]; cited from earlier work.

Where two headings read alike, the source gives them in different places.

Data on six compounds can be found in article PMC8415315, “Maternal Serotonin Reuptake Inhibitor Antidepressants Have Acute Effects on Fetal Heart Rate Variability in Late Gestation” (Frontiers in Psychiatry, 2021).

The term AUC(0-t) denotes exposure summed from dosing to a finite time, without extrapolation to infinity. Lower therefore signals less exposure. In general, Cmax refers to the highest concentration seen after dosing. With `CN(C)CCCC1(c2ccc(F)cc2)OCc2cc(C#N)ccc21` (stereo not shown) [Citalopram], in data set [1], the “Δ T3-T0, change in dose-adjusted plasma concentration” value (“Δ T3-T0, change” below) is listed as 3.2 ± 1.0 ng/ml·mg and the “Pharmacokinetic phase at the post-dose fetal assessment” value is “early elimination phase”. In data set [2], this compound returned an area under the curve AUC(0-t) of 906 ± 271 ng·h/mL, a Cmax of 274 ± 92 ng/mL and a Tpeak of 4.9 ± 0.14 h. The “Fetal citalopram exposure relative to the mother” value in data set [3] was “exceed that of the mother”.
As to `CNCCC(Oc1ccc(C(F)(F)F)cc1)c1ccccc1` (stereo not shown) [Fluoxetine], in data set [1], the “Pharmacokinetic phase by the last blood collection (T4)” value (“Pharmacokinetic phase … (T4)” for short) is “absorption phase” and the “Δ T3-T0, change” value was 4.3 ± 2.5 ng/ml·mg. Also, the “Pharmacokinetic phase … (T4)” value in data set [1] (listed as fluoxetine) is on record as “still in the absorption phase”. In data set [2], the “AUClast, total observed maternal drug exposure during study protocol (rank among antidepressants)” value is reported as “highest”; the AUC(0-t) is 3220 ± 1920 ng·h/mL; the peak level (Cmax) was 613 ± 342 ng/mL; the Tpeak turned out to be 5.8 ± 1.0 h. For the same compound, the Tpeak in data set [4] was 6 to 8 h.
For the compound `Fc1ccc([C@@H]2CCNC[C@H]2COc2ccc3c(c2)OCO3)cc1` [Paroxetine], in data set [1], the “Δ T3-T0, change” value is given as 0.13 ± 0.21 ng/ml·mg and the “Pharmacokinetic phase at the post-dose fetal assessment” value is recorded as “early elimination phase”. Besides, in data set [2], the “AUClast, total observed maternal drug exposure during study protocol (rank among antidepressants)” value is “lowest”; the area under the curve AUC(0-t) is 125 ± 66 ng·h/mL; the Cmax came out at 24 ± 5.2 ng/mL; the Tpeak is recorded as 4.6 ± 0.04 h.
For the compound `CN[C@H]1CC[C@@H](c2ccc(Cl)c(Cl)c2)c2ccccc21` [Sertraline], in data set [1], the “Δ T3-T0, change” value came out at 0.71 ± 0.53 ng/ml·mg and the “Pharmacokinetic phase at the post-dose fetal assessment” value was “early elimination phase”. In data set [2], this compound returned an exposure AUC(0-t) of 728 ± 256 ng·h/mL, a Cmax of 197 ± 105 ng/mL and a Tpeak of 5.3 ± 0.18 h.
On to `COc1ccc(C(CN(C)C)C2(O)CCCCC2)cc1` (stereo not shown) [Venlafaxine], for which, in data set [1], the “Pharmacokinetic phase … (T4)” value is given as “still in the absorption phase” and the “Δ T3-T0, change” value was 0.43 ± 0.13 ng/ml·mg. In data set [2], this compound registered an area under the curve AUC(0-t) of 621 ± 314 ng·h/mL, a Cmax of 163 ± 74 ng/mL and a Tpeak of 5.7 ± 0.30 h.
For the compound `CN1CCC[C@H]1c1cccnc1` [nicotine], the “Effect on fetal HR variability” value in the data set on fetal HR is recorded as “decreased”.
